Results: US20230089534A1, “PHENOLIC COMPOSITIONS FOR MALODOR REDUCTION” (Milliken & Company, priority 2021, published 2023)

Columns and labels:
[1] = Stability of antioxidants in AATCC HE liquid detergent (crystallization/precipitation); assay type: physicochemical; conditions: room temperature, after 3 days
Excerpt: A comparison of the stability of the antioxidants in standard AATCC detergent was made to highlight the benefit of having a plurality of molecules. Due to the highly crystalline nature of many commercially available antioxidants, they tend to be incompatible in detergent and will crystallize out of the detergent over time. The inventive compounds of this invention show improvements in remaining stable in liquid detergent.
The antioxidants in table 6 were combined with AATCC HE liquid detergent without optical brighteners (available from Test Fabrics, Inc., Item #0501001) in a 20 mL glass scintillation vial. The vials were placed in a sonicator for 1 hour, then heated to 80° C. for 30 minutes, whereby all samples were completely dissolved. The samples were removed from the oven, swirled briefly and hand then allowed to cool to room temperature. When the vials were cooled down to room temperature, the bottom of the vials were scratched with a metal spatula a few times to aide in the crystallization process, which can take a long time if left undisturbed. After an additional 3 days, observations were recorded as crystallization present or not present in Table 6.

[2] = Wash test: malodor marker reduction on artificial body soil treated fabric, headspace GCMS; conditions: Table 5, vs control detergent nil antioxidant
Method: In order to test the efficiency of the antioxidants for malodor reduction, an artificial body soil (ABS) was prepared. The artificial body soil is a modified version of the soil from ASTM D4265-21. To prepare the ABS, the components of Table 1 were combined in an 8 oz. jar and heated to 70° C. until fully solubilized.
50/50 Cotton/poly interlock fabric (Style 7439 GB, Testfabrics, Inc.) was cut into 2 in×5 in swatches. Cut swatches were dosed with three equally spaced 0.36 mL portions of artificial body soil composition. Fabrics were then sealed together in a mylar bag and incubated at 37° C. for four to seven days prior to wash treatment.
Antioxidant solution was prepared by dissolving the antioxidant compound to be tested in methanol at 0.5% w/w. The antioxidant solution was dosed into the wash water (500 mL) using a micropipettor according to Table 3 to obtain the desired concentration of antioxidant in wash water required for the testing.
To 1 L wash beaker was added 0.4 g Tide Free and Gentle detergent, 500 mL of wash water (as prepared in Table 2) and the antioxidant solution as described in Table 3. The wash beaker was placed in a tergetometer. To the wash beaker was added two incubated fabric swatches (4 g) followed by one 11 in×11 in 50/50 Cotton/Poly interlock knit clean fabric swatch (16 g, Style 74390B, Testfabrics, Inc.), for a total liquor to fabric ratio of 25:1. The fabrics were then washed in the tergotometer for 15 minutes and spun dried for one minute in a spin dryer (Mini Spin Dryer Model LASD-1 available from The Laundry Alternative, Inc.). […] The tests were run in triplicate and an average malodor reduction percent was calculated. […]
The percent malodor reduction is determined by GCMS using an Agilent Intuvo 9000 GC equipped with an Agilent 7000D GC/TQ mass spectrometer and a Trajan PAL 3 RTC sampler equipped with a solid phase micro-extraction (SPME) probe. […] The extracted ion chromatogram for 3-methyl-2-butenal includes Quantifier: 84, Qualifier: 55, Ratio: 35.7. […]

Precipitation Seen ([1]; loading 500 ppm in AATCC detergent): No | Precipitation Seen ([1]; loading 1000 ppm in AATCC detergent): No | Precipitation Seen ([1]; loading 5000 ppm in AATCC detergent): Yes | Precipitation Seen ([1]; loading 10000 ppm in AATCC detergent): Yes
Structure (SMILES): Cc1cc(CCC(=O)OCCOCCOCCOC(=O)CCc2cc(C)c(O)c(C(C)(C)C)c2)cc(C(C)(C)C)c1O [Irganox 245, 2-[2-(2-{3-[3-(tert-Butyl)-4-hydroxy-5-tolyl]propionoxy}ethoxy)ethoxy]ethyl 3-[3-(tert-butyl)-4-hydroxy-5-tolyl]propionate]
% Malodor marker reduction ([2]; 2 ppm in wash water): 44.0% | % Malodor marker reduction ([2]; 4 ppm in wash water): 74.4% | % Malodor marker reduction ([2]; 8 ppm in wash water): 89.5%
